# Legend:
# [1] = Inhibition of human full length […] gene fusion of J-PKAc alpha chimeric protein expressed in Escherichia coli BL21 (DE3) cells using CREB KRREILSRRPSYR-biotinylated peptide as substrate incubated for 45 mins in presence of ATP by ELISA
# [2] = target: T1, Dual specificity tyrosine-phosphorylation-regulated kinase 3 (Homo sapiens) (UniProt O43781); experiment: Inhibition of human DYRK3 at 50 nM in presence of ATP by radiometric hotspot kinase assay relative to control
# T1 sequence (whole entry): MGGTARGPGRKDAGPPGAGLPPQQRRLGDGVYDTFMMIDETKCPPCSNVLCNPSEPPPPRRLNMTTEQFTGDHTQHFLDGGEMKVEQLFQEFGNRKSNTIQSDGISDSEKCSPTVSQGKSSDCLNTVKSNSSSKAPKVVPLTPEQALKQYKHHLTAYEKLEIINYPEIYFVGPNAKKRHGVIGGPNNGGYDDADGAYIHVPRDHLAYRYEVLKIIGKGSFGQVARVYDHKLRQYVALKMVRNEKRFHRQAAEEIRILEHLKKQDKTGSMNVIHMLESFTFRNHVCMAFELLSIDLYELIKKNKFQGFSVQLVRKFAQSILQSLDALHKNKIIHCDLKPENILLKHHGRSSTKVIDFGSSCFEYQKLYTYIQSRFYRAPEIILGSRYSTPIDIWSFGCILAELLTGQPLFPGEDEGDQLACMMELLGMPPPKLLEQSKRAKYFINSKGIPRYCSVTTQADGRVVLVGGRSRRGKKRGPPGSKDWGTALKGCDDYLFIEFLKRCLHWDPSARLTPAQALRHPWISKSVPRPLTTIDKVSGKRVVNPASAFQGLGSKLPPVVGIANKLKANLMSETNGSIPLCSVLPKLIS
# [3] = target: T2, Dual specificity tyrosine-phosphorylation-regulated kinase 2 (Homo sapiens) (UniProt Q92630); experiment: Inhibition of human DYRK2 at 50 nM in presence of ATP by radiometric hotspot kinase assay relative to control
# T2 sequence (whole entry): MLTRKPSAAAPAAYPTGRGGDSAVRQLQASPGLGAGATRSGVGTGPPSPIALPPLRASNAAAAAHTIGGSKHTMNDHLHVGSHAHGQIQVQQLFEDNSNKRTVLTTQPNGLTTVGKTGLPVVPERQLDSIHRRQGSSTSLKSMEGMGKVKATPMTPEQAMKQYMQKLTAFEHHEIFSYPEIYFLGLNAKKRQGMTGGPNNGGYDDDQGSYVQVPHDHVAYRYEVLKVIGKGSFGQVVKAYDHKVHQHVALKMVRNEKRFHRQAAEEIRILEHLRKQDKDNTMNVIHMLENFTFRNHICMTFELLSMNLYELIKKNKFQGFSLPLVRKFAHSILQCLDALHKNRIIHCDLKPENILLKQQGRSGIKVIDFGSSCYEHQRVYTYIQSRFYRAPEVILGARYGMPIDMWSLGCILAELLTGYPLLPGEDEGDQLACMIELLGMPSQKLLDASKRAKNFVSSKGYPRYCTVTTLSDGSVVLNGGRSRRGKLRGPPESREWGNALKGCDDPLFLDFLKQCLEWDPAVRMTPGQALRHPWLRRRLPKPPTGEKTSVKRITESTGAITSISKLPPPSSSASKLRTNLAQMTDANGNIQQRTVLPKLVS
# [4] = target: Dual specificity tyrosine-phosphorylation-regulated kinase 1A (Homo sapiens) (UniProt Q13627); experiment: Inhibition of human DYRK1A at 50 nM in presence of ATP by radiometric hotspot kinase assay relative to control
# [5] = target: Dual specificity tyrosine-phosphorylation-regulated kinase 1B (Homo sapiens) (UniProt Q9Y463); experiment: Inhibition of human DYRK1B at 50 nM in presence of ATP by radiometric hotspot kinase assay relative to control
# Sequence of Dual specificity tyrosine-phosphorylation-regulated kinase 1B (Homo sapiens) (Q9Y463 whole entry, looked up): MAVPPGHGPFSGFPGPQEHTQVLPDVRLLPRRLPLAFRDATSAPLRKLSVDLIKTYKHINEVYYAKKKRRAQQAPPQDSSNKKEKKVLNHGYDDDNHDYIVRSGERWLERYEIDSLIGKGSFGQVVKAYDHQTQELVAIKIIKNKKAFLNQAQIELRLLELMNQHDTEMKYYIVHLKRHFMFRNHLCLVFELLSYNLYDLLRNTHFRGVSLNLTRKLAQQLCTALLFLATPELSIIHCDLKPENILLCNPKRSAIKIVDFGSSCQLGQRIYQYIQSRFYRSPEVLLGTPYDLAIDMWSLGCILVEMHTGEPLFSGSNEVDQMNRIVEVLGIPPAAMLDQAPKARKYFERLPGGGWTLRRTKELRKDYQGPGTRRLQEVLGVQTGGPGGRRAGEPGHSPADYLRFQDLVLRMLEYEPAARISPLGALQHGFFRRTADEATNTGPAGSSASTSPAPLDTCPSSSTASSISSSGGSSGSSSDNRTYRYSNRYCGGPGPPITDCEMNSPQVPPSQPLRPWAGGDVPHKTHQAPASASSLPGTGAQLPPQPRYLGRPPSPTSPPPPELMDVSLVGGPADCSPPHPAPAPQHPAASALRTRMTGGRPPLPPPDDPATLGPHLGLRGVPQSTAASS
# [6] = target: cAMP-dependent protein kinase catalytic subunit alpha (Homo sapiens, UniProt P17612); experiment: Inhibition of wild type PKAc alpha (unknown origin) using CREB KRREILSRRPSYR-biotinylated peptide as substrate incubated for 45 mins in presence of ATP by ELISA
# [7] = Binding affinity to human full length […] gene fusion of J-PKAc alpha chimeric protein expressed in Escherichia coli BL21 (DE3) cells assessed as dissociation constant by MST assay
IC50 [1] [µM],inhibition [2] [%],inhibition [3] [%],inhibition [4] [%],inhibition [5] [%],IC50 [6] [µM],Structure (SMILES),Kd [7] [µM]
> 200,,,,,,Cn1cncc1C1=CN(c2ncnc3[nH]cnc23)CC[S+]1[O-] (configuration not stated),
> 200,,,,,,Cn1c(Br)nc(Br)c1C1=CN(c2ncnc3[nH]cnc23)CCS1,
,16,21,23,23,,Cn1cncc1C1=CN(c2ncnc3[nH]cnc23)CCS1,
79,,,,,90,Cn1cncc1C1=CN(c2ncnc3[nH]c(=O)[nH]c23)CCS1,37
1.04,49,56,61,49,1.1,Cn1cnc(Br)c1C1=CN(c2ncnc3[nH]cnc23)CCS1,3
> 200,,,,,,Cn1cncc1C1=CN(c2ncnc3[nH]cnc23)CCS1(=O)=O,

# Reference: ChEMBL document CHEMBL5370622 (J Nat Prod, 2023)
